The target of the experiment is T1, human IBAT (Homo sapiens, UniProt Q12908).
T1 construct: Bases 599 to 1645 correspond to the complete coding region of human IBAT; expressed in transfected cells
T1 sequence (Q12908 1-348): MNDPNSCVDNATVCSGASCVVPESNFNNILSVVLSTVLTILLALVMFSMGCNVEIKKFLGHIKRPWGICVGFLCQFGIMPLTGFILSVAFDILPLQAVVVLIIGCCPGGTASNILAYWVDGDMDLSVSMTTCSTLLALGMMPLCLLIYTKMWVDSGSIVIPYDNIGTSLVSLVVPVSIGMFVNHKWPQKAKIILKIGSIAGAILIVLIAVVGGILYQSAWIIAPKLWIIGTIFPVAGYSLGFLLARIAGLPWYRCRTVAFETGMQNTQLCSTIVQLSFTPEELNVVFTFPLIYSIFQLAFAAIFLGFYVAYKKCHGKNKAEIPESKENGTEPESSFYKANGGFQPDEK
The experiment in a line: In vitro IBAT inhibition assay: uptake of [3H]-taurocholic acid into CHO-hIBAT cells. To be noted: taurocholic acid 10 μM, 60 min at room temperature, read-out: IC-50 (human IBAT). It counts as cell-based. An excerpt:
Preparation and Procedure for the In Vitro IBAT Inhibition Assay:
• 1. Cloning of an Expression Vector for Human IBAT
The cDNA (complementary deoxyribonucleic acid) of human IBAT was cloned by standard methods of molecular biology as described for example in Molecular Cloning: A Laboratory Manual by Joseph Sambrook and David Russell, and introduced into the pcDNA1 vector from Invitrogen. […] Bases 599 to 1645 correspond to the complete coding region of human IBAT. • 2. Preparation of a Recombinant Cell Line with Constitutive Expression of Human IBAT
The expression vector for human IBAT was introduced by stable transfection into CHO (chinese hamster ovary) cells. […]
CHO-hIBAT cells were seeded in a concentration of 40 000 cells per well in poly-D-lysine-coated 96-well plates in cell culture medium and cultured for 24 h. […] Finally, 100 μl of scintillation fluid were added to each well, and the radioactivity taken up into the cells was determined in a MicroBeta Scintillation Microplate Reader from Wallac.
The half-maximum inhibitory effect of the test compound (IC50 value, inhibitory concentration 50) was determined in the following way: • 1. […] This is the measurement in the absence of substance, measured in sodium-containing transport assay buffer. • 2. […] This is the measurement in the absence of substance, measured in sodium-free transport assay buffer. • 3. […]

As to `CCCC[C@]1(CC)CS(=O)(=O)c2ccc(N(C)C)cc2[C@@H](c2cccc(NC(=O)N[C@@H]3[C@@H](OS(=O)(=O)O)[C@H](OCc4ccccc4)[C@@H](OS(=O)(=O)O)[C@H](OCc4ccccc4)[C@H]3OS(=O)(=O)O)c2)[C@H]1O` [Example 2], the IC50 came to 16 nM.

As for `CCCC[C@]1(CC)CS(=O)(=O)c2ccc(N(C)C)cc2[C@@H](c2cccc(NC(=O)N[C@@H]3[C@@H](O)[C@H](OCc4ccccc4)[C@@H](O)[C@H](OCc4ccccc4)[C@H]3O)c2)[C@H]1O` [Example 1], the IC50 came out at 4.2 nM.
